# Experimental data published in US8664399B2, “Substituted heterocyclic compounds as ion channel modulators” (Gilead Sciences, Inc., priority 2008, dated 2014).
# How the values were obtained:
# Format in all cases: cell-based
# [1] = target: T1, human cardiac sodium channel, hNav1.5 (Homo sapiens, UniProt Q14524); test: Late INa screening assay (automated whole cell patch clamp, PatchXpress; late current generated with 10 μM Tefluthrin); settings: HEK293 cells expressing hNav1.5; for inhibition at 10 µM: 10 μM test compound, read-out: Late Ina % blk (10 μM test cmpd)
# T1 construct: host or cells: HEK293
# Procedure: The late sodium current (Late INa) and peak sodium current (Peak INa) assays were performed on an automated electrophysiology platform, PatchXpress 7000A (MDS Analytical Technologies, Sunnyvale, Calif.), which uses the whole cell patch clamp technique to measure currents through the cell membrane of up to 16 cells at a time. The assay uses an HEK293 (human embryonic kidney) cell line heterologously expressing the wild-type human cardiac sodium channel, hNav1.5, purchased from Millipore (Billerica, Mass.). No beta subunits were coexpressed with the Na channel alpha subunit. Cells were maintained with standard tissue culture procedures and stable channel expression was maintained with 400 μg/ml Geneticin in the culture medium. Cells isolated for use on PatchXpress were incubated for 5 minutes in Versene 1X and then for 2 minutes in 0.0125% Trypsin-EDTA (both at 37° C.) to ensure that 80-90% of the cells are single and not part of a cell cluster. Experiments were carried out at 24-27° C.
# For both the Late INa and Peak INa assays, series resistance compensation was set to 50% and whole-cell compensation is performed automatically. Currents were low-pass filtered at 10 kHz and digitized at 31.25 kHz. Currents through open sodium channels were automatically recorded and stored in the DataXpress2 database (MDS Analytical Technologies, Sunnyvale, Calif.). Analysis is performed using DataXpress2 analysis software and data are compiled in Excel.
# Compound stocks were routinely made in glass vials to 10 mM in dimethyl sulfoxide (DMSO). In some cases, when compounds were not soluble in DMSO, they were made in 100% ethanol. Stocks were sonicated as necessary. The extracellular solution for screening Late INa was composed of: 140 mM NaCl, 4 mM KCl, 1.8 mM CaCl2, 0.75 mM MgCl2, and 5 mM HEPES with pH adjusted to 7.4 using NaOH. The extracellular solution for screening Peak INa was composed of: 20 mM NaCl, 120 mM N-methyl-D glucamine, 4 mM KCl, 1.8 mM CaCl2, 0.75 mM MgCl2, and 5 mM HEPES with pH adjusted to 7.4 using HCl. The intracellular solution used to perfuse the inside of the cells for both the Late INa and Peak INa assays contained: 120 mM CsF, 20 mM CsCl, 5 mM EGTA, 5 mM HEPES and pH adjusted to 7.4 with CsOH. […] The 0Na extracellular solution used at the end of each experiment for the Late INa and Peak INa assays to measure baseline current contained: 140 mM N-methyl-D-glucamine; 4 mM KCl; 1.8 mM CaCl2; 0.75 mM MgCl2; 5 mM HEPES and pH was adjusted to 7.4 with HCl.
# For the Late INa assay, sodium channels were activated every 10 seconds (0.1 Hz) by depolarizing the cell membrane to −20 mV for 250 milliseconds (ms) from a holding potential of −120 mV. In response to a −20 mV voltage step, typical Nav1.5 sodium currents activate rapidly to a peak negative current and then inactivate nearly completely within 3-4 ms.
# All compounds were tested to determine their activity in blocking the late sodium current. Late INa current was generated by adding 10 μM Tefluthrin (pyrethroid) to the extracellular solution while recording Na currents.
# hERG potassium channel = target: T2, hERG potassium channel (Homo sapiens, UniProt Q12809); test: hERG screening assay (PatchXpress automated patch clamp, CHO cell line); settings: CHO cells; for hERG Patch Clamp hERG % blk (1 μm test cmpd): 1 μm test compound; for hERG Patch Clamp hERG % blk (10 μm test cmpd): 10 μm test compound
# T2 construct: expressed in transfected cells; host or cells: CHO (Chinese Hamster Ovary)
# Procedure: Compounds were screened to test their activity in blocking the hERG potassium channel. The hERG channel is heterologously expressed in a CHO (Chinese Hamster Ovary) cell line. Cells were maintained with standard tissue culture procedures and stable channel expression is maintained with 500 μg/ml G418 in the culture medium. Cells were harvested for testing on the PatchXpress automated patch clamp with Accumax (Innovative Cell Technologies, San Diego, Calif.) to isolate single cells.
# The following solutions were used for electrophysiological recordings. The external solution contains: 2 mM CaCl2; 2 mM MgCl2; 4 mM KCl; 150 mM NaCl; 10 mM Glucose; 10 mM HEPES (pH 7.4 with 1M NaOH, osmolarity). The internal solution contained: 140 mM KCl, 10 mM MgCl2, 6 mM EGTA, 5 mM HEPES, 5 mM ATP (pH adjusted to 7.25 with KOH).
# hERG channels are activated when the voltage is stepped to +20 mV from the −80 mV holding potential. During a 5 second step at +20 mV, the channels activate and then largely inactivate, so the currents are relatively small. Upon returning to −50 mV from +20 mV, hERG currents transiently become much larger as inactivation is rapidly removed and then the channel closes. The first step to −50 mV for 300 ms is used as a baseline for measuring the peak amplitude during the step to −50 mV after channel activation. The peak current at −50 mV was measured both under control conditions and after addition of compound.
# All compounds were prepared as 10 mM DMSO stocks in glass vials. Stock solutions were mixed by vigorous vortexing and sonication for about 2 minutes at room temperature. For testing, compounds were diluted in glass vials using an intermediate dilution step in pure DMSO and then further diluted to working concentrations in external solution. Dilutions were prepared no longer than 20 minutes before use.
# After achieving the whole-cell configuration, cells were monitored for 90 seconds to assess stability and washed with external solution for 66 seconds. The voltage protocol described above was then applied to the cells every 12 seconds and throughout the whole procedure. Only cells with stable recording parameters and meeting specified health criteria were allowed to enter the compound addition procedure.
# External solution containing 0.1% DMSO (vehicle) was applied to the cells first to establish the control peak current amplitude. After allowing the current to stabilize for 3 to 5 minutes, 1 μM and then 10 μM test compounds was applied. Each compound concentration was added 4 times and cells were kept in test solution until the effect of the compound reaches steady state or for a maximum of 12 minutes. After addition of test compound, a positive control (1 μM Cisapride) was added and must block >95% of the current for the experiment to be considered valid. Washout in the external solution compartment was performed until the recovery of the current reaches steady state. Data were analyzed using DataXpress, Clampfit (Molecular Devices, Inc., Sunnyvale) and Origin 7 (Originlab Corp.)
# [2] = target: T3, human Nav1.7 (hNav1.7+β1 subunits) channels expressed in HEK293 cells (Homo sapiens, UniProt Q15858); test: Nav1.7 screening assay (fluorescent dye-based membrane potential assay, veratridine); settings: veratridine 50 μmol/L, read-out: IC50 for reduction of Nav1.7 Na+ current
# T3 construct: expressed in transfected cells; host or cells: HEK293
# T1 sequence (Q14524 whole entry): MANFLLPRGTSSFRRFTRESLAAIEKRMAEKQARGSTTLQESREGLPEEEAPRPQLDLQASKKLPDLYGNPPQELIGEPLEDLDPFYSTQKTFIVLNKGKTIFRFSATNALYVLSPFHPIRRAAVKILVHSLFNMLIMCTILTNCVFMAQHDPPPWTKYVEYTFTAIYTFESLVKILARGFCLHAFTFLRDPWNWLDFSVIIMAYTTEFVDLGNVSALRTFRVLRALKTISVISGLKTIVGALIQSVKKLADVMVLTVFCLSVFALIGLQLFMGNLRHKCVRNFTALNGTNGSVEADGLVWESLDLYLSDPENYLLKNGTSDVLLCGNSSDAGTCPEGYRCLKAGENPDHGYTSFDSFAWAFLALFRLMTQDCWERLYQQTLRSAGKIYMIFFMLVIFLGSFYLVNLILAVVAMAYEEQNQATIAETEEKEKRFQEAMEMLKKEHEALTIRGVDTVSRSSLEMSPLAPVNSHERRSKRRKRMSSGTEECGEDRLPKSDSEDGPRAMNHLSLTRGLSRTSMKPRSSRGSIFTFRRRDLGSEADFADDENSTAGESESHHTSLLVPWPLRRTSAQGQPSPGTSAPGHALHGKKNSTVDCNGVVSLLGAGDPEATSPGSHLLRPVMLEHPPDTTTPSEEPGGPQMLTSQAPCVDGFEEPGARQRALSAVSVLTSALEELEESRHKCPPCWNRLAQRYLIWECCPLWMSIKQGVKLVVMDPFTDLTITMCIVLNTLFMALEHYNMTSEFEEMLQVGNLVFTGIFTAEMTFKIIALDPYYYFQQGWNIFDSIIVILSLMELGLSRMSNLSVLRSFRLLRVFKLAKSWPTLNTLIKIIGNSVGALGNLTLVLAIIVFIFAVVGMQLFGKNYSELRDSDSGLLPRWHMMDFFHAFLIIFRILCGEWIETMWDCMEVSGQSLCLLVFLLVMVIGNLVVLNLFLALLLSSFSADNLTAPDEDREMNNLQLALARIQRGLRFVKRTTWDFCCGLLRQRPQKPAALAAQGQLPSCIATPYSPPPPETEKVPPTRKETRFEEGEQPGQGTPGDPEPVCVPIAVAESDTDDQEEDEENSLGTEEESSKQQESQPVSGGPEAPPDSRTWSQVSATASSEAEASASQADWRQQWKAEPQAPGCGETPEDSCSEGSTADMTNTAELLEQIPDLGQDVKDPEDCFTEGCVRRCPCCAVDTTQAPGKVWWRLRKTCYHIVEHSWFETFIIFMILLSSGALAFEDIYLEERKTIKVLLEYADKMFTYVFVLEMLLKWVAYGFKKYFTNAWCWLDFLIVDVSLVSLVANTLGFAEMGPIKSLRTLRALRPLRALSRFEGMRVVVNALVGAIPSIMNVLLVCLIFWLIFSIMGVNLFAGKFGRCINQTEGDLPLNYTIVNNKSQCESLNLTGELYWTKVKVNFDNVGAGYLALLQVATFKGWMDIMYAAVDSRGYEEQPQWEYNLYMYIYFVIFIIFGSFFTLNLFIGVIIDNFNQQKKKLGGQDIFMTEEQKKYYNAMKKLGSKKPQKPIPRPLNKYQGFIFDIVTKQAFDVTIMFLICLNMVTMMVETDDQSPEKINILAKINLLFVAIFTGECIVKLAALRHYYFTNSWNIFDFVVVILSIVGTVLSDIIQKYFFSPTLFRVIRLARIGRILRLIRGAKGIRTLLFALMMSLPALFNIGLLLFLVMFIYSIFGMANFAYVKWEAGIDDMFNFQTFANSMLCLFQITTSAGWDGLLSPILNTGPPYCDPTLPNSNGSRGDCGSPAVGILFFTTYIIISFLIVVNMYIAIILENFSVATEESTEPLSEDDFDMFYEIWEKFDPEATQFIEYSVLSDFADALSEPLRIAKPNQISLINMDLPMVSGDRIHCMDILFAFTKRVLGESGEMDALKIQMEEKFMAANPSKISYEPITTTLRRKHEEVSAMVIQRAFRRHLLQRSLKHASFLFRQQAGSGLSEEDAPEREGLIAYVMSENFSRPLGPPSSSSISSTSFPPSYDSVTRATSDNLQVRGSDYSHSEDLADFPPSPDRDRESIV
# T2 sequence (Q12809 whole entry): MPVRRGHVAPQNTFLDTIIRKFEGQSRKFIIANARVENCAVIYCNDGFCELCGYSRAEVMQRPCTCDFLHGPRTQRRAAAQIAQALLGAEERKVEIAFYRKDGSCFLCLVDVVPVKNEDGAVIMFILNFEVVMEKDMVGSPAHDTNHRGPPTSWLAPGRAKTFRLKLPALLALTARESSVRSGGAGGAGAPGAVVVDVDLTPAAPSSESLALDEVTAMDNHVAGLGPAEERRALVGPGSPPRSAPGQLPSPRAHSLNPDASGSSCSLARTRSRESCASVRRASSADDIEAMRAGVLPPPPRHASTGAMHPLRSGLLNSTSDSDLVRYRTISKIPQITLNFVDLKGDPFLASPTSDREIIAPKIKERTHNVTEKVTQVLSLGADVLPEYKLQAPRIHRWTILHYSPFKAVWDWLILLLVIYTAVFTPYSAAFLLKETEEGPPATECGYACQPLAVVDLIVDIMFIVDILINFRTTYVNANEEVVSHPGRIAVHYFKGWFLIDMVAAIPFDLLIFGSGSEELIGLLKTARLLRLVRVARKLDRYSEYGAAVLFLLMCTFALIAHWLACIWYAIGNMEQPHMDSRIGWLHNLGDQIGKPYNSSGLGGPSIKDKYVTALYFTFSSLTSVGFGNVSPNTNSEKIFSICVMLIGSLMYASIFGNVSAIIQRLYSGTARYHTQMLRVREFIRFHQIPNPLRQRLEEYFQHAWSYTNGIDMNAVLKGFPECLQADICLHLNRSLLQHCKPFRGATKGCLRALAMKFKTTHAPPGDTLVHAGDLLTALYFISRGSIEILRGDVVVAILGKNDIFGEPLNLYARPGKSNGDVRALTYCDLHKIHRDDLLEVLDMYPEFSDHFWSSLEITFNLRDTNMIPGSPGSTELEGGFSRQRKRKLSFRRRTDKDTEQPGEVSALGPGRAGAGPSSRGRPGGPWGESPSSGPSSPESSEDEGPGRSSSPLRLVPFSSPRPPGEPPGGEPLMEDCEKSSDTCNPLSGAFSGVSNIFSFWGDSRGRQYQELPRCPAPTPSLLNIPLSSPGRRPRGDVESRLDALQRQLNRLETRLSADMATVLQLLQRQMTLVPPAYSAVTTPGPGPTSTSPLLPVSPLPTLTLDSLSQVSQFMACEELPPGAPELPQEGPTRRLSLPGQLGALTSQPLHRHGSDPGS
SMILES,inhibition at 10 µM [1] [%],hERG Patch Clamp hERG % blk (1 μm test cmpd) (hERG potassium channel) [%],hERG Patch Clamp hERG % blk (10 μm test cmpd) (hERG potassium channel) [%],IC50 [2] [µM],Late Ina % blk (1 μM test cmpd) ([1]; 1 μM test compound) [%]
"Cc1nc2ccc(Cl)cc2c(-c2ccccc2)c1-c1nnc(Cc2ccc(Cl)cc2)o1 [PT-005, 6-chloro-3-[5-(4-chlorobenzyl)-1,3,4-oxadiazol-2-yl]-2-methyl-4-phenylquinoline]",43.6,10.5,32.5,0.2,–
"CCOC(=O)c1c(Cn2cnnn2)nc2ccc(Cl)cc2c1-c1ccccc1 [PT-010, ethyl 6-chloro-4-phenyl-2-(1H-tetrazol-1-ylmethyl)quinoline-3-carboxylate]",41.6,18.5,66.0,–,–
"Cc1nc2ccc(Cl)cc2c(-c2ccccc2)c1C(=O)OC(c1ccccc1)C1CC1 (stereo not drawn) [PT-012, cyclopropyl(phenyl)methyl 6-chloro-2-methyl-4-phenylquinoline-3-carboxylate]",20.5,10.5,13.5,–,–
"Cc1nc2ccc(Cl)cc2c(-c2ccccc2)c1C(=O)OCC1CC1 [PT-016, cyclopropylmethyl 6-chloro-2-methyl-4-phenylquinoline-3-carboxylate]",59,30.5,73.0,37.5,–
"Cc1nc2ccc(Cl)cc2c(-c2ccccc2)c1C(=O)N1CCC(c2ccc(C(N)=O)cc2)CC1 [PT-017, 4-{1-[(6-chloro-2-methyl-4-phenylquinolin-3-yl)carbonyl]piperidin-4-yl}benzamide]",29.4,28.5,51.0,–,–
"Cc1nc2ccccc2c(C)c1C(=O)OCc1ccc(Cl)cc1 [PT-019, 4-chlorobenzyl 2,4-dimethylquinoline-3-carboxylate]",70.1,10.0,62.5,–,22.5
